Assay results: PubChem BioAssay AID330 (DTP/NCI, 2004)
Where “and” joins values, the source holds several entries; their conditions need not be identical. Equal entries are not always repeated. Inconclusive results and toxic doses are left out.

System: P388 leukemia ip, CD2F1 mice, survival T/C
Experiment: NCI In Vivo Anticancer Drug Screen. Data for tumor model P388 Leukemia (intraperitoneal) in CD2F1 (CDF1) mice
Settings: endpoint: median survival time, higher = longer survival
Procedure, shortened: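 Mice carrying the transplanted tumor received test compound or vehicle. Survival was recorded in each group, and the value is the treated-group measurement divided by that of the vehicle-treated control group.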

[1] = dose: 50.0 mg/kg/injection, schedule: Q01DX005 (ip), vehicle: saline with Tween-80
[2] = dose: 100.0 mg/kg/injection, schedule: Q01DX005 (ip), vehicle: saline with Tween-80
[3] = dose: 200.0 mg/kg/injection, schedule: Q01DX005 (ip), vehicle: saline with Tween-80
[4] = dose: 50.0 mg/kg/injection, schedule: Q01DX005 (ip), vehicle: Klucel (hydroxypropylcellulose) (HPC)
[5] = dose: 100.0 mg/kg/injection, schedule: Q01DX005 (ip), vehicle: Klucel (hydroxypropylcellulose) (HPC)
[6] = dose: 200.0 mg/kg/injection, schedule: Q01DX005 (ip), vehicle: Klucel (hydroxypropylcellulose) (HPC)
[7] = dose: 50.0 mg/kg/injection, schedule: Q01DX009 (ip), vehicle: saline with Tween-80
[8] = dose: 200.0 mg/kg/injection, schedule: Q01DX009 (ip), vehicle: saline with Tween-80
[9] = dose: 60.0 mg/kg/injection, schedule: Q01DX005 (ip), vehicle: saline with Tween-80
[10] = dose: 120.0 mg/kg/injection, schedule: Q01DX005 (ip), vehicle: saline with Tween-80
[11] = dose: 240.0 mg/kg/injection, schedule: Q01DX005 (ip), vehicle: saline with Tween-80
[12] = dose: 100.0 mg/kg/injection, schedule: Q01DX001 (ip), vehicle: saline with Tween-80
[13] = dose: 200.0 mg/kg/injection, schedule: Q01DX001 (ip), vehicle: saline with Tween-80
[14] = dose: 400.0 mg/kg/injection, schedule: Q01DX001 (ip), vehicle: saline with Tween-80

Compound: CC12CCC(N3CCCC3)CC1=CCC1C2CCC2(C)C1CCCN2CCO (stereo not drawn)
- T/C (dose: 12.5 mg/kg/injection, schedule: Q01DX001 (ip), vehicle: Klucel (hydroxypropylcellulose) (HPC)): 99 % of control
- T/C (dose: 25.0 mg/kg/injection, schedule: Q01DX001 (ip), vehicle: Klucel (hydroxypropylcellulose) (HPC)): 99 % of control
- T/C (dose: 50.0 mg/kg/injection, schedule: Q01DX001 (ip), vehicle: Klucel (hydroxypropylcellulose) (HPC)): 103 % of control

Compound: CC[N+](C)(CC)c1ccccc1
- T/C (dose: 25.0 mg/kg/injection, schedule: Q04DX002 (ip), vehicle: saline): 103 % of control
- T/C (dose: 50.0 mg/kg/injection, schedule: Q04DX002 (ip), vehicle: saline): 104 % of control

Compound: CC1CC(C)(C)OC(C2CC=CCC2C)O1 (stereo not drawn)
- T/C [1]: 97 % of control
- T/C [2]: 100 % of control
- T/C [3]: 109 % of control

Compound: CC(Cc1nc2ccccc2[nH]1)Cc1nc2ccccc2[nH]1
- T/C (dose: 25.0 mg/kg/injection, schedule: Q01DX005 (ip), vehicle: Klucel (hydroxypropylcellulose) (HPC)): 100 % of control
- T/C [4]: 99 % of control
- T/C [5]: 92 % of control
- T/C [6]: 91 % of control

Compound: [Cl][Pt+2][Cl].[NH-]C1CCCC2CCC[N-]C12 (stereo not drawn)
- T/C [7]: 154 % of control
- T/C [8]: 174 % of control and 184 % of control
- T/C (dose: 400.0 mg/kg/injection, schedule: Q01DX009 (ip), vehicle: saline with Tween-80): 176 % of control

Compound: Cc1ccc(S(=O)(=O)NC(CNC(N)=O)C(=O)O)cc1 (stereo not drawn)
- T/C (dose: 12.5 mg/kg/injection, schedule: Q01DX009 (ip), vehicle: other): 107 % of control
- T/C (dose: 25.0 mg/kg/injection, schedule: Q01DX009 (ip), vehicle: other): 101 % of control
- T/C (dose: 50.0 mg/kg/injection, schedule: Q01DX009 (ip), vehicle: other): 100 % of control
- T/C (dose: 100.0 mg/kg/injection, schedule: Q01DX009 (ip), vehicle: other): 97 % of control
- T/C (dose: 200.0 mg/kg/injection, schedule: Q01DX009 (ip), vehicle: other): 96 % of control

Compound: O=c1oc2c(c(N(c3ccccc3)c3ccccc3)c1Cl)CCc1nc(-c3ccccc3)sc1-2
- T/C [1]: 91 % of control
- T/C [2]: 94 % of control
- T/C [3]: 88 % of control

Compound: COc1cc(/C=C/C(=O)c2ccccc2O)cc(OC)c1OC
- T/C [1]: 97 % of control
- T/C [2]: 110 % of control
- T/C [3]: 97 % of control

Compound: Cc1cnc2cc(-c3ccccc3)[nH]c2n1
- T/C (dose: 15.0 mg/kg/injection, schedule: Q01DX005 (ip), vehicle: Klucel (hydroxypropylcellulose) (HPC)): 90 % of control
- T/C (dose: 30.0 mg/kg/injection, schedule: Q01DX005 (ip), vehicle: Klucel (hydroxypropylcellulose) (HPC)): 87 % of control
- T/C (dose: 60.0 mg/kg/injection, schedule: Q01DX005 (ip), vehicle: Klucel (hydroxypropylcellulose) (HPC)): 88 % of control

Compound: Cc1ccc(-c2cn3c(n2)SCC3)cc1
- T/C (dose: 100.0 mg/kg/injection, schedule: Q04DX003 (ip), vehicle: Klucel (hydroxypropylcellulose) (HPC)): 99 % of control
- T/C (dose: 200.0 mg/kg/injection, schedule: Q04DX003 (ip), vehicle: Klucel (hydroxypropylcellulose) (HPC)): 106 % of control
- T/C (dose: 400.0 mg/kg/injection, schedule: Q04DX003 (ip), vehicle: Klucel (hydroxypropylcellulose) (HPC)): 99 % of control

Compound: c1ccc2c(c1)C1OC2c2ccccc21
- T/C [4]: 99 % of control
- T/C [5]: 108 % of control
- T/C [6]: 100 % of control

Compound: CO[C@H]1/C=C/O[C@@]2(C)Oc3c(C)c(O)c4c(O)c(c(/C=N/N5CCCN(Cc6ccccc6)CC5)c(O)c4c3C2=O)NC(=O)/C(C)=C\C=C\[C@H](C)[C@H](O)C(C)[C@@H](O)C(C)[C@H](OC(C)=O)[C@@H]1C (stereo partly drawn)
- T/C (dose: 25.0 mg/kg/injection, schedule: Q01DX009 (ip), vehicle: suspension in saline): 107 % of control

Compound: NC(=O)c1cncn1C1OCC(O)C(O)C1O (stereo not drawn)
- T/C (dose: 60.0 mg/kg/injection, schedule: Q01DX005 (ip), vehicle: saline): 96 % of control
- T/C (dose: 120.0 mg/kg/injection, schedule: Q01DX005 (ip), vehicle: saline): 94 % of control
- T/C (dose: 240.0 mg/kg/injection, schedule: Q01DX005 (ip), vehicle: saline): 91 % of control

Compound: CCOC(=O)c1ccc(NC(=O)O/N=C/c2ccncc2)cc1
- T/C (dose: 6.25 mg/kg/injection, schedule: Q01DX009 (ip), vehicle: saline with Tween-80): 88 % of control
- T/C (dose: 12.5 mg/kg/injection, schedule: Q01DX009 (ip), vehicle: saline with Tween-80): 112 % of control
- T/C (dose: 25.0 mg/kg/injection, schedule: Q01DX009 (ip), vehicle: saline with Tween-80): 88 % of control
- T/C [7]: 93 % of control
- T/C (dose: 100.0 mg/kg/injection, schedule: Q01DX009 (ip), vehicle: saline with Tween-80): 94 % of control
- T/C [8]: 90 % of control

Compound: O=C(O)CCC1CC(=O)OC1c1ccccc1 (stereo not drawn)
- T/C (dose: 100.0 mg/kg/injection, schedule: Q01DX001 (ip), vehicle: Klucel (hydroxypropylcellulose) (HPC)): 94 % of control
- T/C (dose: 200.0 mg/kg/injection, schedule: Q01DX001 (ip), vehicle: Klucel (hydroxypropylcellulose) (HPC)): 94 % of control
- T/C (dose: 400.0 mg/kg/injection, schedule: Q01DX001 (ip), vehicle: Klucel (hydroxypropylcellulose) (HPC)): 94 % of control

Compound: O=C1C=CSc2ccccc2N1
- T/C [9]: 110 % of control
- T/C [10]: 103 % of control
- T/C [11]: 101 % of control

Compound: COc1cccc2c1C(=O)c1c(O)c3c(c(O)c1C2=O)C[C@@](O)(C(=O)CO)C[C@@H]3OC1CC([N+](C)(C)C)C(O)C(C)O1 (stereo partly drawn)
- T/C (dose: 3.89 mg/kg/injection, schedule: Q04DX003 (ip), vehicle: water): 105 % of control
- T/C (dose: 6.48 mg/kg/injection, schedule: Q04DX003 (ip), vehicle: water): 109 % of control
- T/C (dose: 12.5 mg/kg/injection, schedule: Q01DX001 (ip), vehicle: water): 112 % of control
- T/C (dose: 12.5 mg/kg/injection, schedule: Q01DX009 (ip), vehicle: water): 160 % of control and 187 % of control
- T/C (dose: 30.0 mg/kg/injection, schedule: Q04DX003 (ip), vehicle: water): 150 % of control

Compound: CN(C)CCP(=O)(O)O
- T/C [12]: 95 % of control
- T/C [13]: 100 % of control
- T/C [14]: 100 % of control

Compound: CCc1c(C)c(SC)n(C)c(=O)c1C#N
- T/C (dose: 25.0 mg/kg/injection, schedule: Q01DX009 (ip), vehicle: Klucel (hydroxypropylcellulose) (HPC)): 99 % of control
- T/C (dose: 50.0 mg/kg/injection, schedule: Q01DX009 (ip), vehicle: Klucel (hydroxypropylcellulose) (HPC)): 100 % of control
- T/C (dose: 100.0 mg/kg/injection, schedule: Q01DX009 (ip), vehicle: Klucel (hydroxypropylcellulose) (HPC)): 97 % of control
- T/C (dose: 200.0 mg/kg/injection, schedule: Q01DX009 (ip), vehicle: Klucel (hydroxypropylcellulose) (HPC)): 91 % of control

Compound: C/C=C/c1ccc(OC(C)C(=O)c2ccc(OC)c(OC)c2)c(OC)c1 (stereo not drawn)
- T/C (dose: 10.0 mg/kg/injection, schedule: Q01DX005 (ip), vehicle: Klucel (hydroxypropylcellulose) (HPC)): 97 % of control
- T/C (dose: 20.0 mg/kg/injection, schedule: Q01DX005 (ip), vehicle: Klucel (hydroxypropylcellulose) (HPC)): 100 % of control
- T/C (dose: 40.0 mg/kg/injection, schedule: Q01DX005 (ip), vehicle: Klucel (hydroxypropylcellulose) (HPC)): 99 % of control

Compound: NC(=S)NNC(=O)C(Cc1ccccc1)NC(=O)OCc1ccccc1 (stereo not drawn)
- T/C [7]: 93 % of control

Compound: NC(N)=NC(=O)COc1ccc(Cl)cc1Cl
- T/C [9]: 97 % of control
- T/C [10]: 103 % of control
- T/C [11]: 114 % of control

Compound: COc1cc([C@@H]2c3cc4c(cc3[C@H](O)[C@H]3COC(=O)[C@H]23)OCO4)cc(OC)c1OC
- T/C (dose: 0.5 mg/kg/injection, schedule: Q01DX005 (ip), vehicle: Klucel (hydroxypropylcellulose) (HPC)): 121 % of control
- T/C (dose: 1.0 mg/kg/injection, schedule: Q01DX005 (ip), vehicle: Klucel (hydroxypropylcellulose) (HPC)): 117 % of control
- T/C (dose: 1.0 mg/kg/injection, schedule: Q01DX005 (ip), vehicle: saline with Tween-80): 118 % of control
- T/C (dose: 2.0 mg/kg/injection, schedule: Q01DX005 (ip), vehicle: saline with Tween-80): 121 % of control
- T/C (dose: 8.0 mg/kg/injection, schedule: Q01DX005 (ip), vehicle: Klucel (hydroxypropylcellulose) (HPC)): 152 % of control

Compound: Cc1cc(C)n(C2=NS(=O)(=O)c3ccccc3N2c2ccccc2)n1
- T/C [12]: 102 % of control
- T/C [13]: 98 % of control
- T/C [14]: 97 % of control
